# How the values were obtained:
# Format in all cases: physicochemical
# Avastin® (bevacizumab) [1] = assay: Stability of pre-stressed Avastin® dialysed into PBS pH 7.0, with ATP or GMP: monomers by AFFF-MALS; settings: for stabilization of Avastin® across molar ratios: ratios 1:1, 1:10, 1:100, 40° C.
# Description: All samples were stored at a temperature of 40° C. during 28 days. […] The aggregation state of the antibodies was measured by multi-angle light scattering (MALS) after separation by asymmetrical flow field-flow fractionation (AFFF). […] Data were collected and analyzed with Astra software (Wyatt Technology Europe GmbH, Dernbach, Germany). The aggregation state was expressed as the percentage of monomers versus time.
# After pre-stressing, Avastin® samples are combined with either ATP or GMP at three Avastin®: compound of formula (I) molar ratios (1:1, 1:10 and 1:100). All samples are stored at a temperature of 40° C. for 28 days and stability is measured as described in Example 1 and compared to a sample of Avastin® alone stored under the same conditions. For GMP, a dilution of GMP was made in PBS pH 7.0 and pH was re-adjusted to pH 7.0 before the combination with Avastin® to prevent the risk of higher order aggregates caused by the addition of NaOH directly to the antibody formulation.
# Avastin® (bevacizumab) [2] = assay: Effect of AMP on the unmodified commercial bevacizumab formulation (Avastin®): monomers by AFFF-MALS; settings: 40° C.; for stabilization of the antibody (increase in the amount of monomers) versus Avastin® alone: p<0.05
# Description: (§1) All samples were stored at a temperature of 40° C. during 28 days. Samples were analyzed directly after preparation (t0) and after 7, 14 and 28 days. The aggregation state of the antibodies was measured by multi-angle light scattering (MALS) after separation by asymmetrical flow field-flow fractionation (AFFF). […] Data were collected and analyzed with Astra software (Wyatt Technology Europe GmbH, Dernbach, Germany). The aggregation state was expressed as the percentage of monomers versus time.
# All samples are stored at a temperature of 40° C. for 28 days and stability is measured as described in Example 1 and compared to a sample of Avastin® alone stored under the same conditions.
# bevacizumab = assay: Stability of dialysed, pre-stressed bevacizumab alone and with AMP: percentage of monomers by AFFF-MALS; settings: for percentage of monomers: pH 7.0
# Description: as §1, with “A 50 mM phosphate buffer pH 7.0 was used. The buffer choice was based on” for “All samples were stored at”, “pH range and buffer capacity that is tolerated physiologically and that is acceptable for the stability” for “temperature”, “antibodies. […]” for “40° C. during 28 days.”
# [3] = molar ratio 1:1, 1 day at 40° C. (t1)
# [4] = molar ratio 1:10, 1 day at 40° C. (t1)
# [5] = molar ratio 1:100, 1 day at 40° C. (t1)
Compound,"stabilizing properties in comparison of excipients (Avastin® (bevacizumab) [1]; after 28 days of storage at 40° C., ratio not specified)",effect on antibody stability versus Avastin® alone (Avastin® (bevacizumab) [1]; [3]),effect on antibody stability versus Avastin® alone (Avastin® (bevacizumab) [1]; [4]),effect on antibody stability versus Avastin® alone (Avastin® (bevacizumab) [1]; [5]),"stabilization of Avastin® across molar ratios (Avastin® (bevacizumab) [1]; all timepoints (1:100 most effective, then 1:10, then 1:1))",stabilization compared to the other molar ratios (Avastin® (bevacizumab) [2]; Avastin®:AMP 1:10 versus 1:1 and 1:100),"stabilization of the antibody (increase in the amount of monomers) versus Avastin® alone (Avastin® (bevacizumab) [2]; Avastin®:AMP molar ratio 1:10, t1, t14 and t28)","stabilization of the antibody (increase in the amount of monomers) versus Avastin® alone (Avastin® (bevacizumab) [2]; Avastin®:AMP molar ratio 1:100, only t14 and t28)","increase in the proportion of the antibody present in the monomer form (bevacizumab; AMP added to a liquid formulation containing already formed antibody aggregates, general statement)","percentage of monomers (bevacizumab; bevacizumab 25 mg/ml with AMP (read as molar ratio 1:153), 14 days at 40° C., n=3)","percentage of monomers (bevacizumab; bevacizumab:AMP molar ratio 1:1.53, 14 days at 40° C.)","percentage of monomers (bevacizumab; bevacizumab:AMP molar ratio 1:1.53, 28 days at 40° C., n=3)","percentage of monomers (bevacizumab; bevacizumab:AMP molar ratio 1:15.3, 14 days at 40° C.)","percentage of monomers (bevacizumab; bevacizumab:AMP molar ratio 1:15.3, 28 days at 40° C., n=3)","percentage of monomers (bevacizumab; bevacizumab:AMP molar ratio 1:153, 28 days at 40° C., n=3)","effect on antibody stability versus Avastin® alone (Avastin® (bevacizumab) [1]; molar ratio 1:1, 28 days at 40° C. (t28))","effect on antibody stability versus Avastin® alone (Avastin® (bevacizumab) [1]; molar ratio 1:10, 28 days at 40° C. (t28))","effect on antibody stability versus Avastin® alone (Avastin® (bevacizumab) [1]; molar ratio 1:100, 28 days at 40° C. (t28))","higher order aggregates (Avastin® (bevacizumab) [1]; molar ratio 1:100, 28 days at 40° C., probably due to pH adjustment)",stabilization of Avastin® across molar ratios (Avastin® (bevacizumab) [1]; up to 14 days)
"Nc1nc2c(ncn2[C@@H]2O[C@H](COP(=O)(O)O)[C@@H](O)[C@H]2O)c(=O)[nH]1 [GMP, guanosine 5′-monophosphate]",most distinct stabilizing properties,destabilizing,destabilizing,ability to stabilize the antibody,concentration dependent stabilization,–,–,–,–,–,–,–,–,–,–,–,–,–,–,–
"Nc1ncnc2c1ncn2[C@@H]1O[C@H](COP(=O)(O)O)[C@@H](O)[C@H]1O [AMP, adenosine 5′-monophosphate]",–,–,–,–,–,better stabilization,significant stabilization,significant stabilization,10% to 30,higher than 94%,higher than 80%,higher than 76%,higher than 80%,higher than 76%,around 90%,–,–,–,–,–
"Nc1ncnc2c1ncn2[C@@H]1O[C@H](COP(=O)(O)OP(=O)(O)OP(=O)(O)O)[C@@H](O)[C@H]1O [ATP, adenosine 5′-triphosphate]",–,stabilizing effect,stabilizing effect,stabilizing effect,–,–,–,–,–,–,–,–,–,–,–,no significant difference,no significant difference,significant stabilization,small percentage of higher order aggregates,concentration dependent stabilization

# From patent publication US20130017197A1, “STABILIZED ANTIBODY PREPARATIONS AND USES THEREOF” (UNIVERSITE DE GENEVE, priority 2010, published 2013)
